Test results taken from patent US8476064B2, “Inhibition assay method and device for detection of antibiotics” (Charm Sciences, Inc., priority 2006, dated 2013).

How the values were obtained:
[1] = test system: B.st. spores; test: Single service kidney swab microbial growth inhibition test, culture of Example 1, with or without beta-lactam receptor; type: cell-based, Bacillus (Geobacillus) Stearothermophilus; settings: for test result With receptor: with 1 U receptor
Procedure: A Bromocresol purple (BCP)/Tris Solution was prepared by combining 25 mL of a Trizma Base solution (TBS), the solution including 2.5 grams Trizma Base in 100 mL of reverse osmosis/deionized water (RO/DI Water), with 100 milligrams of BCP and mixing well. The media was prepared by dissolving 5 grams glucose and 1 gram Mueller Hinton Broth (Mueller Hinton broth includes, in purified filtered water, 2 grams per liter (g/L) beef extract, 17.5 g/L casein hydrolysate acid and 1.5 g/L starch, pH 7.3 at 25 degrees C) into 100 mL RO/DI Water. Then a 0.01 mg/mL solution of trimethoprim in RO/DI Water was prepared and 1.2 mL was added to the media. Next 20 mL of BCP/Tris (sterile filtered through 0.45 micron filter) was added to the media.
(§1) Agar was prepared by combining 0.3 grams Difco Bacto-Agar (Item #0140-01), 0.225 NaCl and 17.485 RO/DI Water. The mixture was heated to 95° C. and then removed from the heat and allowed to cool to 75° C. Next 6 mL of media (prepared as described above with BCP/Tris) was added to the agar and mixed for 5 minutes. The mixture was cooled to 57° C. and 1 mL spore solution (concentration of 1 billion cfu/mL) was added and mixed together for 5 minutes. 0.200 mL was dispensed into the bottom of a vial 4.
The dispensed vial 4 was prepared as described in example 1. An extractant was prepared by adding 4.8 grams of 47.2% Trizma Base and 52.5% Potassium Phosphate Monobasic to 1000 mL RO/DI Water (pH should be 7.5+/−0.10). The extractant was sealed within the niblet 5 and the niblet was added to the vial 4. The vial 4 was heat sealed with foil.
The single service kidney swab procedure was run by first making a 3 inch incision into kidney. The swab 1 was then withdrawn from the test unit, the test unit in the form of a POCKETSWAB, by gently pulling and twisting the handle 2 out of the test unit body 7. The swab 1 was then inserted into the incision of the kidney and allowed to sit for 15 minutes to allow full absorption of liquid into the swab 1. The swab 1 was reinserted by gently pushing down and twisting to engage the threads 6 and screwing the handle down slowly about halfway. The swab tip 3 punctured the seals 12, 13 & 14 immersing the swab tip 3 into the extractant within the niblet 5 where it sat for 2 minutes. The swab 1 was then screwed down all the way. After shaking and tapping the vial 4 to get residual liquid into the bottom of the vial 4 and in contact with the culture 15, we placed the vial 4 into a heat block set at 67° C. and incubated for 2.5 hours (if urine is tested instead of kidney, incubate for 4 hours).
Culture is prepared as in Example 1. Prior to dispensing 200 microliters into the vial 4, antibiotic binder is prepared, in this example an antibiotic binder from the cell wall of B.st., also known as receptor. Varying amounts of inhibitory receptor units are mixed into the culture. Receptor is defined as protein removed from cellular membrane of B.st. A receptor unit (1 U) is the amount of receptor that will, in the test, reverse the culture growth inhibition of 12.5 ppb of penicillin G.
Results in Table 1 are from tests using the culture described in Example 1 and with the addition of receptor added into rinse buffer (rinse buffer composition is 4.8 grams of 47.2% Trizma Base and 52.5% Potassium Phosphate Monobasic to 1000 mL RO/DI Water) at 0, 0.3 units (U), 1.0 U, 2.0 U, 5.0 Upper test. Sample contained the following amounts of penicillin G: 0, 5 parts per billion (ppb), 10 ppb, 12.5 ppb, 25 ppb and 50 ppb. As shown, 1.0 U was able to reverse the result of a 12.5 ppb penicillin G sample. Results are either positive (+) or negative (−).
Results are either positive (+), negative (−) or borderline between positive and negative (+/−). Abbreviations are penicillin G (PenG); sulfamethazine (SMZ); sulfadimethoxine (SDM); tylosin (TY); gentamicin (G); oxytetracycline (OT). […]

[2] = test system: B.st. spores; test: Antibiotic detection test in spiked milk, borate/succinate culture of Example 6 (Table 4); type: cell-based, Bacillus (Geobacillus) Stearothermophilus; design: key to Color 1 / Color 2: Color result 1 and 2 is a negative result; Color result 1 and 2 is a negative result; 3 is a borderline result; 4 and 5 is a positive result; 4 and 5 is a positive result; settings: for % Pos (Color 2) / Color 2: after 16 hours at room temperature; for % Pos (Color 1) / Color 1: immediately after test completion
Procedure: BCP/Borate/Succinate Solution was prepared by adding 3.8 grams of Borate and 6 grams Succinate to 100 mL of reverse osmosis/deionized water (RO/DI Water) in 125 mL flask. 50 milligrams of BCP was added to a 50 mL conical tube and 5 mL of Borate/Succinate solution was added to the 50 milligrams BCP and mixed.
To prepare media 5 grams glucose and 1 gram Mueller Hinton Broth was dissolved in 100 mL RO/DI Water. 1.2 mL of a 0.01 mg/mL solution of trimethoprim in RO/DI Water was prepared and added to the media. A 20 mL of BCP/Borate/Succinate was added to the media and the media was sterile filtered through a 0.45 micron filter and then cooled to 4 degrees C.
as §1, with “each of the vials.” for “a vial 4.”
In test operation 200 microliters of various milk sample, spiked with known concentrations of antibiotics, were pipetted into test vials and incubated for the prescribed time (in this test 2 hours 10 minutes) and prescribed temperature (64 degrees C.+/−2 degrees C.). Incubation was in the Charm I Inctronic incubator. Results were recorded immediately after test completion (Color 1) and after being left at room temperature for 16 hours (Color 2). Results listed are in parts per billion (ppb). 4 samples were run at each concentrations except for raw negative milk (16 samples) and 3 ppb pen G (2 samples) and amoxicillin (2 samples). Abbreviations are penicillin G (PenG); sulfamethazine (SMZ); sulfadimethoxine (SDM); tylosin (TY); gentamicin (G); oxytetracycline (OT); pirlimycin (Pirl); amoxicillin (Amox); ampicillin (Amp); cloxacillin (Clox); ceftiofur sodium (Ceft); cephaprin (Ceph); tilmicosin (Til); sulfadoxine (SDN); neomycin (Neo). Color result 1 and 2 is a negative result, 3 is a borderline result and 4 and 5 is a positive result.

[3] = drug concentration 250 (unit not given)
[4] = drug concentration 500 (unit not given)
[5] = drug concentration 750 (unit not given)

Question: `CN(C)[C@@H]1C(O)=C(C(N)=O)C(=O)[C@@]2(O)C(O)=C3C(=O)c4c(O)cccc4[C@@](C)(O)[C@H]3[C@H](O)[C@@H]12` [OT, oxytetracycline] was tested. Which “test result w/out receptor” value [1, 3] did it give?
Answer: The value was “+”.

Question: And the “test result With receptor” value [1, 3]?
Answer: Its value is “+”.

Question: What about the “test result w/out receptor” value [1, 4] of the same compound?
Answer: The value was “+”.

Question: And the “test result With receptor” value [1, 4]?
Answer: The value was “+”.

Question: What about the “test result w/out receptor” value [1, 5] of the same compound?
Answer: The value was “+”.

Question: And the “test result With receptor” value [1, 5]?
Answer: The value was “+”.

Question: And the “% Pos (Color 2)” value ([2]; milk spiked at 200 ppb)?
Answer: Its value is 0%.

Question: What about the “Color 2” value ([2]; milk spiked at 200 ppb) of the same compound?
Answer: The value was 2.

Question: And the “% Pos (Color 1)” value ([2]; milk spiked at 200 ppb)?
Answer: Its value is 0%.

Question: And the “Color 1” value ([2]; milk spiked at 200 ppb)?
Answer: The value was 2.

Question: And the “% Pos (Color 2)” value ([2]; milk spiked at 300 ppb)?
Answer: The value was 100%.

Question: What about the “Color 2” value ([2]; milk spiked at 300 ppb) of the same compound?
Answer: Its value is 4.

Question: And the “% Pos (Color 1)” value ([2]; milk spiked at 300 ppb)?
Answer: Its value is 100%.

Question: And the “Color 1” value ([2]; milk spiked at 300 ppb)?
Answer: The value was 5.

Question: What does the source list for `Cc1cc(C)nc(NS(=O)(=O)c2ccc(N)cc2)n1` [SMZ, sulfamethazine]?
Answer: test result w/out receptor ([1]; drug 50 ppb): −; test result With receptor ([1]; drug 50 ppb): −; test result w/out receptor ([1]; drug 100 ppb): +/−; test result With receptor ([1]; drug 100 ppb): +/−; test result w/out receptor ([1]; drug 200 ppb): +/−; test result With receptor ([1]; drug 200 ppb): +/−; % Pos (Color 2) ([2]; milk spiked at 100 ppb): 100%; Color 2 ([2]; milk spiked at 100 ppb): 5; % Pos (Color 1) ([2]; milk spiked at 100 ppb): 100%; Color 1 ([2]; milk spiked at 100 ppb): 5; % Pos (Color 2) ([2]; milk spiked at 200 ppb): 100%; Color 2 ([2]; milk spiked at 200 ppb): 4; % Pos (Color 1) ([2]; milk spiked at 200 ppb): 100%; Color 1 ([2]; milk spiked at 200 ppb): 5
